{"source": "patent US12616704B2", "about": "“Cannabichromene formulation for pain management” (Zyus Life Sciences Inc., priority 2020, dated 2026)", "key": {"CB2 receptors": {"target": "CB2 receptors (Homo sapiens, UniProt P34972)", "sequence (P34972 whole entry)": "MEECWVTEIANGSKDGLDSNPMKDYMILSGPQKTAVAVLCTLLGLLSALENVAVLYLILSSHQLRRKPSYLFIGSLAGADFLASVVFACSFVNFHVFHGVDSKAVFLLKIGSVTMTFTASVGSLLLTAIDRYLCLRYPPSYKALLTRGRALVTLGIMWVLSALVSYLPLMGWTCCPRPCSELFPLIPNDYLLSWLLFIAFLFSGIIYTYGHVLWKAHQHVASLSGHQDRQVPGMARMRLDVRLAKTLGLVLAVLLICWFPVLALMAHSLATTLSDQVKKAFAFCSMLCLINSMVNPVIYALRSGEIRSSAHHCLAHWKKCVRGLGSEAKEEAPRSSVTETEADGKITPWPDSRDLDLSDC", "conditions": "read-out: affinity (Ki) for CB2 receptors; cited from earlier work"}, "[1]": {"assay": "Body weight in OIPN study", "assay_type": "in vivo, C57BL/6J mice", "conditions": "OIPN mice; CBC 20 mg/kg p.o., Duloxetine 25 mg/kg i.p.", "procedure": "Body Weight—Animal body weights were measured before assigning the treatment groups and then on each day of the study. The last body weight measurement was performed upon endpoint sampling. Terminal body weights were not collected from animals found dead or euthanized moribund."}, "[2]": {"target": "TRPA1 (Transient Receptor potential A1) channels (Homo sapiens, UniProt O75762)", "sequence (O75762 whole entry)": "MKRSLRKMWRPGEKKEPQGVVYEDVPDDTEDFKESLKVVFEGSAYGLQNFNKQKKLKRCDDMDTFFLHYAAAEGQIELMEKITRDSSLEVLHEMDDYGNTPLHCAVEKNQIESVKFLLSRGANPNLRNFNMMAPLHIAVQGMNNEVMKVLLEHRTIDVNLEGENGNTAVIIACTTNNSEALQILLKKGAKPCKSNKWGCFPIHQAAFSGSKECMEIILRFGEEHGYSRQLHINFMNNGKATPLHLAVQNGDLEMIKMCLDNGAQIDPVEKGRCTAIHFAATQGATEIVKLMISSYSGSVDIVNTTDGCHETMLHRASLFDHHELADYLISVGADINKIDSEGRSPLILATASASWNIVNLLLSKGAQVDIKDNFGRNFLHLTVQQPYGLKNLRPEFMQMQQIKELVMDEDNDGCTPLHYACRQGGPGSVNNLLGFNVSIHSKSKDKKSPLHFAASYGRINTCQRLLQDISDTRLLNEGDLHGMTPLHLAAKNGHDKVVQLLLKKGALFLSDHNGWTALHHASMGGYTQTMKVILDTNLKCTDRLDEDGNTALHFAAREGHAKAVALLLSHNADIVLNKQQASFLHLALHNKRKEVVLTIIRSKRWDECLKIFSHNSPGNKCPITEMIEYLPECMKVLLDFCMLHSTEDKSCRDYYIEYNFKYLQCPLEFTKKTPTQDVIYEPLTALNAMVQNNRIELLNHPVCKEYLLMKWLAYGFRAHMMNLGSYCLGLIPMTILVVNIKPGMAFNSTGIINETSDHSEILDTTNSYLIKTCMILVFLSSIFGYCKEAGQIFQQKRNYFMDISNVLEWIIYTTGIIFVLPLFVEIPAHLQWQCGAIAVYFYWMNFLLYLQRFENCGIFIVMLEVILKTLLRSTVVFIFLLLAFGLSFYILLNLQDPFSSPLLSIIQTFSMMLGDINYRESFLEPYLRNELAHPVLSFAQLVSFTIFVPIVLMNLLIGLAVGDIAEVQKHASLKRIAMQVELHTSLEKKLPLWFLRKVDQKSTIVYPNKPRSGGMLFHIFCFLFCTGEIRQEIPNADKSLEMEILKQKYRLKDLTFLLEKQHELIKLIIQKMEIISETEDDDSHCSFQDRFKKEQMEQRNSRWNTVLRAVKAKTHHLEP", "conditions": "among phytocannabinoids; cited from earlier work"}}}
{"smiles": "CCCCCc1cc(O)c2c(c1)OC(C)(CCC=C(C)C)C=C2", "note": "(stereo not drawn) [CBC, cannabichromene]", "values": [{"measurement": "Ki", "setting": "CB2 receptors", "result": "~100", "unit": "nM"}, {"measurement": "body weight development from D22 onwards", "setting": "[1]", "result": "slower increase in body weight"}, {"measurement": "agonist potency at TRPA1 channels", "setting": "[2]", "result": "most potent agonist of all the phytocannabinoids"}]}
